Reference: US6689379B1, “Transdermal therapeutic system with neutralized acrylic adhesive patch” (priority 1999, dated 2004)

Test: EVA copolymer film permeation (modified Franz cell), release of active substance from pressure-sensitive adhesive film
Type: in vitro ADME
Settings: neutralization degrees 0 to 100% (KOH); EVA membrane; FIGS. 4, 5 and 6
Description: Examinations on the thermodynamics of a model of ethylene vinyl acetate (EVA) copolymer film permeation
For three basic pharmaceutical active agents, the release behaviour from an acid polyacrylate pressure-sensitive adhesive film in dependence from the neutralization of the adhesive and from the reagent used for this purpose was examined. All tests on EVA membrane were carried out with n=3 samples.
To this end, the active substance-containing pressure-sensitive adhesive films were stuck on an EVA film as carrier membrane, and the amount of active agent released over time through this membrane to an aqueous medium buffered to pH 5.5 and located on the opposite side was quantified by appropriate HPLC methods. […] Since in the embodiment examples the active substance represents the only component which is low-molecular and capable of migration, it is the tendency of exclusively this active substance to exudate from the polymer matrix of the pressure-sensitive adhesive and to migrate into the acceptor medium after passing through the EVA membrane which is recorded.
Independently of the permeation properties of human skin for such an active substance, the release tendency of the system in respect of the active substance as measured here is the most essential impetus for transdermal therapy by means of such a system. […]

CCN(C)C(=O)Oc1cccc([C@H](C)N(C)C)c1 [rivastigmin]
dependence of the permeated active substance amount / release rate on the neutralization degree: strong dependence of the effect from the neutralization degree
